According to paper PMC10930102 (Journal of Enzyme Inhibition and Medicinal Chemistry, 2024):

Experiments:
[1] = tested on: A549; assay: SRB antiproliferation assay; type: cell-based; settings: Homo sapiens, 48 h, read-out: Antiproliferative activity (IC50) A549
[2] = biological target: T1, c-Met (Homo sapiens, UniProt P08581); assay: RTK in vitro enzymatic assay; type: biochemical; settings: 20 μM ATP
T1 construct: purchased Reaction Biology Corporation

[3] = biological target: T2, CYP2C9 (Homo sapiens, UniProt P11712); assay: CYP450 inhibition assay; type: in vitro ADME; settings: human recombinant enzyme
T2 construct: purchased Reaction Biology Corporation; host or cells: CYP cDNA baculovirus expression systems

[4] = biological target: T3, HDAC8 (Homo sapiens, UniProt Q9BY41); assay: HDAC inhibition assay (fluorogenic diacylpeptide, Reaction Biology); type: biochemical; settings: tested once, ten-dose starting at 30 µM
T3 construct: purchased Reaction Biology Corporation; host or cells: baculovirus expression system in SF9 cells
T3 sequence (Q9BY41 1-377): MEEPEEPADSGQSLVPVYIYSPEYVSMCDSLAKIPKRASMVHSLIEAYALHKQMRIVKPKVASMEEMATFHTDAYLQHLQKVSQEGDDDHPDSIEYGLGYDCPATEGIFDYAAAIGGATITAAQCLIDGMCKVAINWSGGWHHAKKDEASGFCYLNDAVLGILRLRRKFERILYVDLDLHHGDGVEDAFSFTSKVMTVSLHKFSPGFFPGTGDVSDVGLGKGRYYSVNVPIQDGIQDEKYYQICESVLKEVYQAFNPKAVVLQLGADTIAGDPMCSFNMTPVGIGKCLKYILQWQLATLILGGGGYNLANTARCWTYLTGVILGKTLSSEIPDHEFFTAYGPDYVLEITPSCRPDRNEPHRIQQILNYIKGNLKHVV

[5] = biological target: T4, HDAC1 (Homo sapiens, UniProt Q13547); assay: HDAC inhibition assay (fluorogenic peptide, Reaction Biology); type: biochemical; settings: tested once, ten-dose starting at 30 µM
T4 construct: purchased Reaction Biology Corporation; host or cells: baculovirus expression system in SF9 cells
T4 sequence (Q13547 whole entry): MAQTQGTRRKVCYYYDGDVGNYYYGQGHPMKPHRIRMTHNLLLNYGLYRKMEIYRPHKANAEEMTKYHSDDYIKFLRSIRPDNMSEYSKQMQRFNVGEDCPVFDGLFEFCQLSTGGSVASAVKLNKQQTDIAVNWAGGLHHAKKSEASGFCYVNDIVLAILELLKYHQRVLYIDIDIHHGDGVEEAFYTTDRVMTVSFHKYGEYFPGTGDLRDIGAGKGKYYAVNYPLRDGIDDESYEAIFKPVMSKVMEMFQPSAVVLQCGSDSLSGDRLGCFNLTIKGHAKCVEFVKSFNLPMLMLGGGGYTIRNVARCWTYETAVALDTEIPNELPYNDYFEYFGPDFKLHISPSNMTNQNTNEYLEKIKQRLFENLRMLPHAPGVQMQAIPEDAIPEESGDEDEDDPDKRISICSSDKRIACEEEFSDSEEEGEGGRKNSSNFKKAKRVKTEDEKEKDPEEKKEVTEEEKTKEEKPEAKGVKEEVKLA

T2 sequence (P11712 whole entry): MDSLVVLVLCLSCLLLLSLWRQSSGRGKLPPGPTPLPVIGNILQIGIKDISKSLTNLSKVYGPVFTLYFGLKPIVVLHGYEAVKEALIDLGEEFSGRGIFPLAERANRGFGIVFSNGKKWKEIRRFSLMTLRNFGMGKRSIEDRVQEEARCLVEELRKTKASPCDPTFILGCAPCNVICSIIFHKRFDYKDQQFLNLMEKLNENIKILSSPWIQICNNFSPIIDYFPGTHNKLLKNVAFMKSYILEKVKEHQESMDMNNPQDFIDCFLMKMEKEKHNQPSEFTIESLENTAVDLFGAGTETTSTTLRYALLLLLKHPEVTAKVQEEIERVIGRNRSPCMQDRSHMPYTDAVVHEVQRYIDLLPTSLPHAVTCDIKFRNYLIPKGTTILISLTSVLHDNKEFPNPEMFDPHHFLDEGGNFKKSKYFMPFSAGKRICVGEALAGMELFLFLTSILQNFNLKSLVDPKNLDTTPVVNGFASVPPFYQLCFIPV
T1 sequence (P08581 25-1390): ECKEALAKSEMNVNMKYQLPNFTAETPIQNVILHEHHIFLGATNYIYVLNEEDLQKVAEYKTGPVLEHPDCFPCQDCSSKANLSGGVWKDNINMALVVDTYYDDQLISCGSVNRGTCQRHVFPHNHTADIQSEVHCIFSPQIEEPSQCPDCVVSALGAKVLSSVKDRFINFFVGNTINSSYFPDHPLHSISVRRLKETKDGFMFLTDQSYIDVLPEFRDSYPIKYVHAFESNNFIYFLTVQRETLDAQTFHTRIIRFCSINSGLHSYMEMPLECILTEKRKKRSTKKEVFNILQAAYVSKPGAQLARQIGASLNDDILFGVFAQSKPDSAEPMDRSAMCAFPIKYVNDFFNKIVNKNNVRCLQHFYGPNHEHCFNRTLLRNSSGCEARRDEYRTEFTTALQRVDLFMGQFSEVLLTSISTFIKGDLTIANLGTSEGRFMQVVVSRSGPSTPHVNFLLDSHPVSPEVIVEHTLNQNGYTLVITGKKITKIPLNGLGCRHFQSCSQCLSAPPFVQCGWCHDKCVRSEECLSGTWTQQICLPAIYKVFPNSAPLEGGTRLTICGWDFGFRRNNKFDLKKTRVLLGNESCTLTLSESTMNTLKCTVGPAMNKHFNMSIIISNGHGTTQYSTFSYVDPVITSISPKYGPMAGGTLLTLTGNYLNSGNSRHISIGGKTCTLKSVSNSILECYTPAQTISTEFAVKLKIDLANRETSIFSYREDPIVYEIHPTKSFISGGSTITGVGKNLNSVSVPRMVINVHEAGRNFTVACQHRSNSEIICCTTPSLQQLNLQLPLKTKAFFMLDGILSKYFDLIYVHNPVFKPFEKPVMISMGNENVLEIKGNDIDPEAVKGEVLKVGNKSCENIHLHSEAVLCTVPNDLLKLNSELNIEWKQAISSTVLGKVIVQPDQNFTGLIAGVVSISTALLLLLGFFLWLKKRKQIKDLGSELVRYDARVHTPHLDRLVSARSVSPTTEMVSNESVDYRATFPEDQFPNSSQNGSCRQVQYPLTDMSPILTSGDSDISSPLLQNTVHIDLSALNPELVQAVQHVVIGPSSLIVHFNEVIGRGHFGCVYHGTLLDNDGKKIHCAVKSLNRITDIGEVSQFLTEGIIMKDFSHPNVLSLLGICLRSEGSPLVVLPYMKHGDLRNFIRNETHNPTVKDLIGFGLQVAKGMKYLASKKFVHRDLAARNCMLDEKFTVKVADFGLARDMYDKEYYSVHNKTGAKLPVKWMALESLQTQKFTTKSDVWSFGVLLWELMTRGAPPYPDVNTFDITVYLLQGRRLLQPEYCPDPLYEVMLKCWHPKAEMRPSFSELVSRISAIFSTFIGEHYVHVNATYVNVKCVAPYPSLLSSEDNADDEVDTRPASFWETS

CC(C)NC(=O)C1CCC(n2c(=NC(=O)c3ccccc3)[nH]c3cc(C=CC(=O)NO)ccc32)CC1 [Compound 3b, (E)-N-(5-((E)-3-(Hydroxyamino)-3-oxoprop-1-en-1-yl)-1-((1S,4S)-4-(isopropylcarbamoyl)cyclohexyl)-1H-benzo[d]imidazol-2(3H)-ylidene)benzamide]
IC50 [1]: 330 ± 30 nM | IC50 [2]: > 10000 nM | IC50 [3]: 2650 nM | IC50 [4]: 1690 nM | IC50 [5]: 10800 nM
